From PMC5061434, “Bacterial Expression, Purification and In Vitro Phosphorylation of Full-Length Ribosomal S6 Kinase 2 (RSK2)” (PLoS ONE, 2016)
pIC50: −log10 of the molar value.

What was measured:
[1] = target: T1, Ribosomal S6 kinase 2 (RSK2) (Mus musculus, UniProt P18654); test: ADP-Glo kinase assay with S6 peptide at […] ATP; also thermal shift (SYPRO Orange, ~[…]°C); format: biochemical
T1 construct: gene Rps6ka3; full-length mouse RSK2 (amino acids 1–740), expressed in E. coli, phosphorylated in vitro by ERK2 and PDK1
T1 sequence (P18654 whole entry, the tested form may be a part): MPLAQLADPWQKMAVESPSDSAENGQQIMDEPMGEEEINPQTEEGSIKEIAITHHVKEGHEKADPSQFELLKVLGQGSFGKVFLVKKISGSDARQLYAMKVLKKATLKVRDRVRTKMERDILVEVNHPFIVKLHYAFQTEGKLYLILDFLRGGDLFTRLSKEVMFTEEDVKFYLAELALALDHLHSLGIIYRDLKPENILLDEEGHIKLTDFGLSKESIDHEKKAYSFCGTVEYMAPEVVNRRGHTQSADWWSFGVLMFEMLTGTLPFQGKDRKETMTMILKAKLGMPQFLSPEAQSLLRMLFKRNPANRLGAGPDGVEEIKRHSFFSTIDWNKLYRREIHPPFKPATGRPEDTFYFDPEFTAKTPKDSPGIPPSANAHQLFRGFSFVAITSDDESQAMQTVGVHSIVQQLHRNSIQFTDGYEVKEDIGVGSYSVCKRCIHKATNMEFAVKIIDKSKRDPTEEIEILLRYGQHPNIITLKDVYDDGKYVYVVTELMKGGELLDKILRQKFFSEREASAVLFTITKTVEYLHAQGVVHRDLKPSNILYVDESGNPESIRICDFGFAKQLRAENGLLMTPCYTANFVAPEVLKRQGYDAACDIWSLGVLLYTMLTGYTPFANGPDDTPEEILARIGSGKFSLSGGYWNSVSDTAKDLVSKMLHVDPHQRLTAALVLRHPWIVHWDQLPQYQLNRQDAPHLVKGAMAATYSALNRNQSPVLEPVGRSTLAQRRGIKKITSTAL

[2] = target: full-length murine ribosomal S6 kinase 2 (RSK2) (mouse) (UniProt P18654); test: dynamic light scattering; RSK2 at ~0.7 mg/ml, 10°C, 50 mM Tris pH 8.0, 500 mM NaCl, 5 mM 2-mercaptoethanol; dimer of monomers

| Compound | pIC50 [1] | stoichiometry N [2] |
| --- | --- | --- |
| CC(=O)O[C@@H]1[C@@H](OC(C)=O)[C@@H](O)[C@H](Oc2c(-c3ccc(O)cc3)oc3cc(O)cc(O)c3c2=O)O[C@H]1C [SL0101] | ~5.10 |  |
| full-length murine ribosomal S6 kinase 2 (RSK2) (from UniProt P18654 1-740) (enzyme) |  | 2 |
